Twelve compounds from US10131691B2, “Compositions and methods for specific regulation of pyruvate dehydrogenase kinase” (THE BOARD OF TRUSTEES OF THE LELAND STANFORD JUNIOR …, priority 2011, dated 2018) can be followed below.

No end group written: not given here.

One assay concerns JNK. Description: JNK phosphorylation in hearts subjected to I/R (Western blot). More on the design: species or system rat. The note with it: ex vivo I/R hearts, 1 μM peptide. How it is done: (§1) An ex vivo model of acute ischemic heart damage was used, which involves a 30 min equilibration period, followed by 30 min of global ischemia, which in turn is followed by 60 min of reperfusion. The hearts were perfused with 1 μM TAT or TAT-conjugated peptide. Normoxic control hearts were subjected to 90 min perfusion in the absence of ischemia. Coronary effluent was collected to determine creatine phosphokinase (CPK) release during the first 30 min of the reperfusion period. At the end of the reperfusion period, hearts were sliced into 1-mm-thick transverse sections and incubated in triphenyltetrazolium chloride solution (TTC, 1% in phosphate buffer, pH 7.4) at 37° C. for 15 min. Infarct size was expressed as a percentage of the risk zone (equivalent to total LV muscle mass) (methods described in Brandman et al., 2007, J. Biol. Chem., 282:4113-4123; Inagaki et al., 2003, Circulation, 108:869-875).
Rat hearts were homogenized in a buffer containing 210 mM mannitol, 70 mM sucrose, 5 mM MOPS and 1 mM EDTA followed by isolation of the mitochondria fraction (described in Churchill et al., 2008, J. Mol. Cell. Cardiol., 46:278-284) and identified by the presence of VDAC (MitoSciences, Eugene, Oreg., USA). The level of phosphorylated and unphosphorylated JNK1/2 was analyzed in the total fraction using respective specific antibodies (Cell Signaling, Danvers, Mass. and Santa Cruz Biotechnology, CA, USA).
(§2) First, I/R-induced infarct size after treatment with ΨPDK or δV1-1 (Inagaki et al., 2003, Circulation, 108:869-875), was smaller than that in hearts treated with the control peptide or with ΨδRACK, the δPKC-specific activator or with δV1-5 (FIG. 6A). Second, similar data were obtained when determining the levels of released creatine phosphokinase (CPK), as a marker of myocardial infarction; CPK levels in the ΨPDK- or δV1-1-treated hearts were similar and were lower than those after treatment with control peptide, ΨδRACK or δV1-5 (FIG. 6B).
(§3) To begin determining the contribution of each of the amino acids on the effect of the peptide, Alanine scanning was used (Brunel et al., 2006, J. Virol., 80:1680-1687; Chen et al., J. Pep. Res., 2000, 56:147-156; Brems et al., 1992, Prot. Eng., 5:527-533) (substituting individual amino acid with an alanine). The resultant ΨPDK peptide analogs were then used in the same model of myocardial infarction, using CPK release and JNK phosphorylation as markers for cardiac injury. CPI release into the perfusates and pJNK in the hearts were determined after I/R in the presence of respective peptides and compared to the levels in hearts subjected to I/R in the presence of the control peptide. None of the peptides having a substitution had any significant biological activity (Table 1).

Another assay has as its system hearts subjected to I/R. The experiment in a line: Ex vivo cardiac protection from ischemia/reperfusion (Langendorff; infarct size, CPK release). The note with it: for cardioprotection / biological activity in ex vivo I/R model (in words): CPK release and JNK phosphorylation as markers; for CPK (u/L) / protection from I/R injury: ex vivo I/R; for CPK (u/L): release into perfusate, 1 μM peptide; for protection from I/R injury: n=6. More on the design: species or system rat. As for the experimental part:
as §1, with “108:869-875). […]” for “108:869-875).”
as §2, §3

Assay [1] relates to fibroblasts derived from δPKC knock-out mice. Description: MARCKS phosphorylation in fibroblasts from δPKC knock-out mice. The format is cell-based, mouse. The note with it: fibroblasts lacking δPKC. The text has this:
(§4) Fibroblasts were isolated from wild-type or δPKC knockout mice (provided by Dr. Robert Messing, Gallo Center, UCSF) as previously described (Disatnik et al., 2004, J. Cell Sci., 117:4469-4479) and maintained in 20% fetal bovine serum.
(§5) Phosphorylation of myristoylated alanine-rich C kinase substrate (MARCKS), a ubiquitous PKC substrate, was monitored by Western blot of total cell lysates, using anti-phosphorylated MARCKS (Cell Signaling, Danvers, Mass.). Anti-MARCKS and anti-δPKC antibodies were obtained from Santa Cruz Biotechnology (Santa Cruz Biotechnology, CA, USA).
(§6) The ΨPDK sequence is found both in PDK and in the PDK-cognate protein, δPKC. It was therefore predicted that ΨPDK mimics inhibitory intra-molecular interaction, and, similar to ΨδRACK, ΨPDK should compete with the inhibitory interaction of PDK and δPKC, and increase δPKC-mediated functions (FIG. 1A). Phosphorylation of myristoylated alanine-rich C-kinase substrate (MARCKS) was used as a marker of PKC activity (Disatnik et al., 2004, J. Cell. Sci., 117:4469-4479). […] To determine the selectivity of the peptides for δPKC, fibroblasts derived from δPKC knock-out mice were also used.

Another assay addresses T1, δPKC (Mus musculus, UniProt P28867).
T1 construct: endogenous in cells; host or cells: primary fibroblasts from wild-type mice
Description: MARCKS phosphorylation in wild-type fibroblasts (Western blot). The format is cell-based. The settings on record: 20% serum, peptides conjugated to TAT47-57, relative to control peptide.
Text: as §4, §5, §6
For orientation: A western blot detects proteins with antibodies after separation by electrophoresis.

T1 sequence (P28867 whole entry): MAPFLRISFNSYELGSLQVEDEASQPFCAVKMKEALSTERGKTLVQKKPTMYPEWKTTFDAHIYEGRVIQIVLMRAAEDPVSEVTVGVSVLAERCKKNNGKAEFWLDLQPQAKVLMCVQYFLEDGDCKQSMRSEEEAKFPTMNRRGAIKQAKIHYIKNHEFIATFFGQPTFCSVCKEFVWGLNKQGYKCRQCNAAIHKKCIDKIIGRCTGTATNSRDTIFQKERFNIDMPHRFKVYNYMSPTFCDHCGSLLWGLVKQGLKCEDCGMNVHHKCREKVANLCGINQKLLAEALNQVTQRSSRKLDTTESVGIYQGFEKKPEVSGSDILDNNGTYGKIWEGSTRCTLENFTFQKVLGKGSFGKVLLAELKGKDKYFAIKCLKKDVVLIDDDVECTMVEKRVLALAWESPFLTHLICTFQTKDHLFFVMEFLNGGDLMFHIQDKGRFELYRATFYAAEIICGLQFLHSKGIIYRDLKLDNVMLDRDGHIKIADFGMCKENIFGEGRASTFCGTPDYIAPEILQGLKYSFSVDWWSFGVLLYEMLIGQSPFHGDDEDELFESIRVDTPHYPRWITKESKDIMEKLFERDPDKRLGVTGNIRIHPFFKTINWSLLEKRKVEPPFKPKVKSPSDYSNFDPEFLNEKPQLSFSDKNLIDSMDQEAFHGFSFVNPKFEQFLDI

For the compound ALS(p)T(p)ER [p199], in the assay on JNK, the “p-JNK/total JNK” value worked out at 0.6 ± 0.02. In addition, in the assay with hearts subjected to I/R, the “cardioprotection / biological activity in ex vivo I/R model (in words)” value (“cardioprotection / biological activity” for short) is “None of the phosphorylated peptides (p197, 198, 199) affected cardioprotection” and the “CPK (u/L)” value was found to be 842 ± 258 u/L.

For the compound ALSTEA [p196], in the assay on JNK, the “p-JNK/total JNK” value is 0.9 ± 0.10. In addition, the “CPK (u/L)” value in the assay on hearts subjected to I/R is listed as 926 ± 265 u/L.

As to YGRKKRRQRRRGSGALSTER [TAT-GSG-ΨPDK], the “protection from I/R injury” value in the assay on hearts subjected to I/R worked out at 73%.

Consider ALATER [p193], for which the “p-JNK/total JNK” value in the assay with JNK was determined as 0.7 ± 0.03. In the assay on hearts subjected to I/R, the “CPK (u/L)” value was 1155 ± 299 u/L.

As for ALST(p)ER [p197], the “p-JNK/total JNK” value in the assay on JNK is on record as 0.7 ± 0.10. Also, in the assay with hearts subjected to I/R, the “cardioprotection / biological activity” value is “None of the phosphorylated peptides (p197, 198, 199) affected cardioprotection” and the “CPK (u/L)” value turned out to be 803 ± 131 u/L.

With ALS(p)TER [p198], in the assay on JNK, the “p-JNK/total JNK” value amounted to 0.9 ± 0.10. In addition, in the assay with hearts subjected to I/R, the “cardioprotection / biological activity” value is “None of the phosphorylated peptides (p197, 198, 199) affected cardioprotection” and the “CPK (u/L)” value was 1169 ± 293 u/L.

As for AASTER [p192], the “p-JNK/total JNK” value in the assay with JNK came out at 0.7 ± 0.10. Also, the “CPK (u/L)” value in the assay with hearts subjected to I/R stood at 1272 ± 172 u/L.

On to ALSTAR [p195], for which the “p-JNK/total JNK” value with JNK was found to be 0.7 ± 0.10. In the assay on hearts subjected to I/R, the “CPK (u/L)” value is on record as 913 ± 199 u/L.

As to “GKTLVQ (not fully specified (C-terminus); also: TAT47-57 conjugated via disulfide to C-terminal Cys) [δV1-5, reference compound]”, the MARCKS phosphorylation entry (in assay [1]; in the assay with δPKC) was “increased MARCKS phosphorylation” each time.

As to `CCCCCCCCCCCCCC(=O)O[C@@H]1[C@@H](C)[C@@]2(O)[C@@H](C=C(CO)C[C@]3(O)C(=O)C(C)=C[C@@H]23)[C@@H]2C(C)(C)[C@]12OC(C)=O` [PMA, Phorbol 12-myristate 13-acetate, reference compound], the MARCKS phosphorylation result on δPKC is “caused increased MARCKS phosphorylation”.

For the compound ALSAER [p194], in the assay on JNK, the “p-JNK/total JNK” value was 0.6 ± 0.10. Moreover, the “CPK (u/L)” value in the assay with hearts subjected to I/R was found to be 886 ± 211 u/L.

Take “ΨPDK-Cs-sC-TAT: SEQ ID NO. 2 linked to SEQ ID NO. 33 (TAT) via a disulfide bond (chain 1 ALSTER; chain 2 YGRKKRRQRRR; not fully specified; disulfide bond linkage)”: the “protection from I/R injury” value in the assay on hearts subjected to I/R stood at 45%.
